How the values were obtained:
[1] = target: T1, HMOX2_C282 (Homo sapiens, UniProt P30519); assay: IA-DTB cysteine engagement; assay type: binding; conditions: 22Rv1 cells, relative to DMSO; for % engagement HMOX2_282: 5 μM probe, 1 h (FIG. 5B); for % engagement HMOX2_C282: 20 μM probe, 1 h
T1 construct: endogenous in cells; host or cells: 22Rv1
T1 sequence (P30519 1-316): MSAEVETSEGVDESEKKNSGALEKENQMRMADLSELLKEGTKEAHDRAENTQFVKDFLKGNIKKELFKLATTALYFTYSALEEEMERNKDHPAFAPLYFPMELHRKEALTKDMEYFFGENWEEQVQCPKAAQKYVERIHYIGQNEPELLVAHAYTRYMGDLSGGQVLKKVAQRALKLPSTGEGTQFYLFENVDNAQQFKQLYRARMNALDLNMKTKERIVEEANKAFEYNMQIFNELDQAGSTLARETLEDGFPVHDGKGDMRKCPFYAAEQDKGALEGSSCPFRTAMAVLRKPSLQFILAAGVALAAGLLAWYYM
How it was run: (§1)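 Cells were treated in situ with electrophilic probes, then lysed, and the lysates (2 mg/mL protein) were labeled with IA-DTB for 1 h at ambient temperature. After reduction, alkylation and trypsin digestion, labeled peptides were streptavidin-enriched, TMT-labeled and fractionated. Engagement ratios are probe vs DMSO reporter intensities, averaged across replicates.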

[2] = target: T2, CEP128_C915 (Homo sapiens, UniProt Q6ZU80); assay: IA-DTB cysteine engagement; assay type: binding; conditions: 22Rv1 cells, 20 μM probe, 1 h, relative to DMSO
T2 construct: endogenous in cells; host or cells: 22Rv1
T2 sequence (Q6ZU80 1-1094): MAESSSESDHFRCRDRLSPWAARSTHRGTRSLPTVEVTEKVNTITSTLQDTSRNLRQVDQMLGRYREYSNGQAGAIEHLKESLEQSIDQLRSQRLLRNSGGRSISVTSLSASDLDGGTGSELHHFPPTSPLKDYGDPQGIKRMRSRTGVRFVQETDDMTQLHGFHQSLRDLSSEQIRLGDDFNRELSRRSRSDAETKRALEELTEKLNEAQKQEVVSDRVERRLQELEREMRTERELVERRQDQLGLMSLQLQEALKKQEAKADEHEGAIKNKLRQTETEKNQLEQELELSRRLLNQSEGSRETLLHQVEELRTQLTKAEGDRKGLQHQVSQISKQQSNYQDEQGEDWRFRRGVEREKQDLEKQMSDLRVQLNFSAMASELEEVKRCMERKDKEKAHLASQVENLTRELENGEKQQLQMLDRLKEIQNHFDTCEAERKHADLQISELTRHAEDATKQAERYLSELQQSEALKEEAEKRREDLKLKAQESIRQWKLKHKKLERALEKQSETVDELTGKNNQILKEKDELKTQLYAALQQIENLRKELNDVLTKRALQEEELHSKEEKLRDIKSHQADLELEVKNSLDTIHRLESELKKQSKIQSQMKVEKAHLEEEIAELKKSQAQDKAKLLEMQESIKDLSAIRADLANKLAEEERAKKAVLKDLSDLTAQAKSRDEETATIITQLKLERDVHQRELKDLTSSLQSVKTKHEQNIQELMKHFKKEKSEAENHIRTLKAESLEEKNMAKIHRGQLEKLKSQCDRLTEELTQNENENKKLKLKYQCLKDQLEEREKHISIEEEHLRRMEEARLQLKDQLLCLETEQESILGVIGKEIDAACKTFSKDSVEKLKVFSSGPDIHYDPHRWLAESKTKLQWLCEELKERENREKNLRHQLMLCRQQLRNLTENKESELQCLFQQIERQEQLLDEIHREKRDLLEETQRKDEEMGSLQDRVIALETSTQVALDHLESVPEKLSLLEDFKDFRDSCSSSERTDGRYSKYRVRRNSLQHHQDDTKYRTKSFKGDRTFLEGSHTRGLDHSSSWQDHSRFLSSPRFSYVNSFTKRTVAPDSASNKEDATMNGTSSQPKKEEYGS
How it was run: as §1

Row | SMILES | % engagement HMOX2_282 [1] | % engagement HMOX2_C282 [1] | % engagement CEP128_C915 [2]
1 | CC#CC(=O)N1C[C@H](c2ccc(Br)cc2)[C@@H]1C(=O)Nc1cccc2cccnc12 [MY-45B, (2R,3S)-3-(4-bromophenyl)-1-(but-2-ynoyl)-N-(quinolin-8-yl)azetidine-2-carboxamide] | 92.13% | – | –
2 | C=CC(=O)N1C[C@H](c2ccc(Br)cc2)[C@H]1C(=O)Nc1cccc2cccnc12 [MY-3A, (2S,3S)-1-acryloyl-3-(4-bromophenyl)-N-(quinolin-8-yl)azetidine-2-carboxamide] | – | 96.25% | 7%
3 | C=CC(=O)N1C[C@@H](c2ccc(Br)cc2)[C@H]1C(=O)Nc1cccc2cccnc12 [MY-1A, (2S,3R)-1-acryloyl-3-(4-bromophenyl)-N-(quinolin-8-yl)azetidine-2-carboxamide] | – | 93.5% | −13%
4 | C=CC(=O)N1C[C@H](c2ccc(Br)cc2)[C@@H]1C(=O)Nc1cccc2cccnc12 [MY-1B, (2R,3S)-1-acryloyl-3-(4-bromophenyl)-N-(quinolin-8-yl)azetidine-2-carboxamide] | 94.00% | 96.25% | 67.5%
5 | C=CC(=O)N1C[C@H](c2ccc(Br)cc2)[C@H]1C(=O)Nc1cccc2cccnc12 [MY-3B, (2S,3S)-1-acryloyl-3-(4-bromophenyl)-N-(quinolin-8-yl)azetidine-2-carboxamide] | – | 97.75% | 25%

Source: US20250034216A1, “STEREOSELECTIVE COVALENT LIGANDS FOR ONCOGENIC AND IMMUNOLOGICAL PROTEINS” (The Scripps Research Institute, priority 2021, published 2025)
